Reference: PubChem BioAssay AID1963967 (Molecular Pharmacology Branch, DTP, NCI, 2024)
“And” between values parts separate entries of the source, which are not always exact repeats. Equal values may be shown once.

Tested on: 855422-203-R-J1-PDC spheroids with HUVEC/MSC, viability
Assay: Anticancer human tumor 855422-203-R-J1-PDC patient-derived bladder carcinoma cell line growth inhibition [PI3K]
Details: for viability, T/C: stronger effect = lower value
How it was run: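 We assembled tumor spheroids that included a stromal compartment of HUVEC and MSCs, then exposed them to targeted agents alone and together with PI3K pathway inhibitors. Concentration series descended by half-log from clinically achievable Cmax levels. Viability served as the endpoint.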

[1] = curve of first compound, second compound 0.0316 µM
[2] = curve of first compound, second compound 0.1 µM
[3] = curve of first compound, second compound 0.316 µM
[4] = curve of first compound, second compound 1 µM
[5] = curve of first compound, second compound 3.16 µM
[6] = curve of first compound, second compound 10 µM
[7] = second compound 0.0316 µM, first compound 0.0316 µM
[8] = second compound 0.0316 µM, first compound 0.1 µM
[9] = second compound 0.0316 µM, first compound 0.316 µM
[10] = second compound 0.0316 µM, first compound 1 µM
[11] = second compound 0.0316 µM, first compound 3.16 µM
[12] = second compound 0.0316 µM, first compound 10 µM
[13] = second compound 0.1 µM, first compound 0.0316 µM
[14] = second compound 0.1 µM, first compound 0.1 µM
[15] = second compound 0.1 µM, first compound 0.316 µM
[16] = second compound 0.1 µM, first compound 1 µM
[17] = second compound 0.1 µM, first compound 3.16 µM
[18] = second compound 0.1 µM, first compound 10 µM
[19] = second compound 0.316 µM, first compound 0.0316 µM
[20] = second compound 0.316 µM, first compound 0.1 µM
[21] = second compound 0.316 µM, first compound 0.316 µM
[22] = second compound 0.316 µM, first compound 1 µM
[23] = second compound 0.316 µM, first compound 3.16 µM
[24] = second compound 0.316 µM, first compound 10 µM
[25] = second compound 1 µM, first compound 0.0316 µM
[26] = second compound 1 µM, first compound 0.1 µM
[27] = second compound 1 µM, first compound 0.316 µM
[28] = second compound 1 µM, first compound 1 µM
[29] = second compound 1 µM, first compound 3.16 µM
[30] = second compound 1 µM, first compound 10 µM
[31] = second compound 3.16 µM, first compound 0.0316 µM
[32] = second compound 3.16 µM, first compound 0.1 µM
[33] = second compound 3.16 µM, first compound 0.316 µM
[34] = second compound 3.16 µM, first compound 1 µM
[35] = second compound 3.16 µM, first compound 3.16 µM
[36] = second compound 3.16 µM, first compound 10 µM
[37] = second compound 10 µM, first compound 0.0316 µM
[38] = second compound 10 µM, first compound 0.1 µM
[39] = second compound 10 µM, first compound 0.316 µM
[40] = second compound 10 µM, first compound 1 µM
[41] = second compound 10 µM, first compound 3.16 µM
[42] = second compound 10 µM, first compound 10 µM
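Further: agents incubated with spheroids for one week before read-out.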
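Wherever viability, T/C is given: 100% = DMSO vehicle-treated control wells.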

Cn1nccc1Nc1nccc(-c2ccn(C(CO)c3ccc(Cl)c(F)c3)c(=O)c2)n1 (stereo not given) + Cc1nc(NC(=O)N2CCCC2C(N)=O)sc1-c1ccnc(C(C)(C)C(F)(F)F)c1
IC50 [1]: 9480 nM
IC50 [2]: 8220 nM
IC50 [3]: 6990 nM
IC50 [4]: 4270 nM
IC50 [5]: < 31.6 nM
IC50 [6]: < 31.6 nM
viability, T/C [7]: 106%
viability, T/C [8]: 95.9%
viability, T/C [9]: 103%
viability, T/C [10]: 89%
viability, T/C [11]: 86.4%
viability, T/C [12]: 47.5%
viability, T/C [13]: 99.3%
viability, T/C [14]: 93.3%
viability, T/C [15]: 94.8%
viability, T/C [16]: 85.9%
viability, T/C [17]: 85%
viability, T/C [18]: 43.2%
viability, T/C [19]: 96%
viability, T/C [20]: 89.3%
viability, T/C [21]: 96.4%
viability, T/C [22]: 92.2%
viability, T/C [23]: 87.9%
viability, T/C [24]: 32.8%
viability, T/C [25]: 70.1%
viability, T/C [26]: 70.1%
viability, T/C [27]: 63.4%
viability, T/C [28]: 67.5%
viability, T/C [29]: 61.5%
viability, T/C [30]: 17.9%
viability, T/C [31]: 42.3%
viability, T/C [32]: 39.6%
viability, T/C [33]: 40.7%
viability, T/C [34]: 35.2%
viability, T/C [35]: 26.9%
viability, T/C [36]: 10.1%
viability, T/C [37]: 24.6%
viability, T/C [38]: 21.6%
viability, T/C [39]: 19.4%
viability, T/C [40]: 14.4%
viability, T/C [41]: 8.05%
viability, T/C [42]: 4.78%

CC1(C)CCC(CN2CCN(c3ccc(C(=O)NS(=O)(=O)c4ccc(NCC5CCOCC5)c([N+](=O)[O-])c4)c(Oc4cnc5[nH]ccc5c4)c3)CC2)=C(c2ccc(Cl)cc2)C1
viability, T/C (compound 0.0316 µM): 107% [middle of 4 runs]
viability, T/C (compound 0.1 µM): 92.7% [middle of 4 runs]
viability, T/C (compound 0.316 µM): 118% [middle of 4 runs]
viability, T/C (compound 1 µM): 102% and 95.7% and 103% (2×)
viability, T/C (compound 10 µM): 2.29% [middle of 4 runs]
IC50 (curve of compound): 4.81 µM [middle of 4 runs]

Cn1ncc(Cl)c1-c1cc(C(=O)NC(CN)Cc2cccc(F)c2)sc1Cl (stereo not given) + Cc1nc(NC(=O)N2CCCC2C(N)=O)sc1-c1ccnc(C(C)(C)C(F)(F)F)c1
IC50 [1]: 1020 nM
IC50 [2]: 1160 nM
IC50 [3]: 893 nM
IC50 [4]: 637 nM
IC50 [5]: < 31.6 nM
IC50 [6]: < 31.6 nM
viability, T/C [7]: 100%
viability, T/C [8]: 78%
viability, T/C [9]: 71%
viability, T/C [10]: 50.1%
viability, T/C [11]: 32.6%
viability, T/C [12]: 9.93%
viability, T/C [13]: 89.6%
viability, T/C [14]: 77.6%
viability, T/C [15]: 71.8%
viability, T/C [16]: 50.9%
viability, T/C [17]: 32.9%
viability, T/C [18]: 9.68%
viability, T/C [19]: 89.3%
viability, T/C [20]: 74.6%
viability, T/C [21]: 64.8%
viability, T/C [22]: 52.4%
viability, T/C [23]: 25.8%
viability, T/C [24]: 7.56%
viability, T/C [25]: 64.8%
viability, T/C [26]: 65.3%
viability, T/C [27]: 55.5%
viability, T/C [28]: 46.5%
viability, T/C [29]: 21.3%
viability, T/C [30]: 3.26%
viability, T/C [31]: 46.9%
viability, T/C [32]: 43%
viability, T/C [33]: 41.9%
viability, T/C [34]: 31.4%
viability, T/C [35]: 13.9%
viability, T/C [36]: 2.81%
viability, T/C [37]: 25.8%
viability, T/C [38]: 23.4%
viability, T/C [39]: 20.3%
viability, T/C [40]: 16.3%
viability, T/C [41]: 9.69%
viability, T/C [42]: 0.43%
